Measured values published in US20050288347A1, “Certain triazole-based compounds, compositions, and uses thereof” (priority 2004, published 2005).
Entries after “also recorded” stand apart in the source; their conditions may differ.

Test system: protein kinase
Assay: HTS ATP-utilizing enzyme assay, off-chip mobility-shift format (Caliper HTS 250)
Type: biochemical, human
Conditions: not given
Outline: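 Kinase reactions ran 2.5 h at 20 to 22 °C with test compound at 10 μM, in a HEPES pH 7.5 master buffer containing Triton X-100 and BSA. Peptide substrate and phosphorylated product separated by mobility shift; inhibition normalized to DMSO (0%) and EDTA (100%) controls, with three-sigma thresholds for hits.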

Row | SMILES | protein kinase against which the compound exhibits inhibitory activity (Table 3)
1 | COc1ccccc1-n1c(SCC2COc3ccccc3O2)nnc1-c1cccc(Cl)c1 (stereo not shown) | MAPKAPK-3

Same assay, conditions: kinase(s) for which the compound exhibits protein kinase inhibitory activity; test compound 10 μM; active = greater than three-sigma from the mean activity of inactive compounds

Row | SMILES | Kinase
2 | Sc1nnc(CNc2cccc(Cl)c2)n1CCc1ccccc1 [5-((3-chlorophenylamino)methyl)-4-phenethyl-4H-1,2,4-triazole-3-thiol] | GSK3-α; also recorded: GSK3-β; also recorded: AURORA-A
3 | Cn1c(SCC(=O)Nc2sc3c(c2C#N)CCCC3)nnc1-c1ccc(O)cc1 | PRAK and CDK2-cyclinE and DYRK2
4 | Cn1c(Cc2ccccc2)nnc1SCC#N [2-(5-benzyl-4-methyl-4H-1,2,4-triazol-3-ylthio)acetonitrile] | AURORA-A
5 | CCn1c(SCC(=O)Nc2nc3ccccc3s2)nnc1-c1cccnc1 | GSK3-β; also recorded: GSK3-α; also recorded: CDK2-cyclinE
6 | COc1ccc(NCc2nnc(SCC(=O)N(c3ccccc3)c3ccccc3)n2-c2ccccc2)cc1 | CHEK2; also recorded: PDGFRR-α; also recorded: FYN α
7 | N#CCSc1nnc(COc2cccc3ccccc23)n1-c1ccccc1 | MAPKAPK-2 and CDK1 and CDK5
8 | O=C(CSc1nnc[nH]1)c1ccc(O)cc1O [2-(4H-1,2,4-triazol-3-ylthio)-1-(2,4-dihydroxyphenyl)ethanone] | GSK3-α
9 | C=CCn1c(SCC(=O)NCCCN2CCOCC2)nnc1-c1sc2ccccc2c1Cl | LYNA
10 | N#CCSc1nnc(-c2cccs2)[nH]1 [2-(5-(thiophen-2-yl)-4H-1,2,4-triazol-3-ylthio)acetonitrile] | DYRK2; also recorded: FLT-3; also recorded: AURORA-A
11 | CCn1c(CNc2cccc(Cl)c2)nnc1SCC(=O)Nc1ccccc1C(=O)OC | AURORA-A
12 | COc1ccc(-c2nnc(SCC(=O)Nc3ccccc3Cl)n2-c2ccccc2)cc1 | INSR and SYK
13 | COc1ccc(-n2c(S)nnc2COc2ccc3ccccc3c2)cc1 | GSK3-α and CDK1
14 | O=C(CSc1nnc(-c2ccc(O)cc2)n1-c1cccc(Cl)c1)Nc1ccccc1 | GSK3-α
15 | Cc1ccc(-n2c(CNc3cccc(Cl)c3)nnc2SCC(=O)c2ccc(Cl)cc2)cc1 | LYNA
16 | COc1ccc(C(=O)CSc2nnc(C3CCCCC3)n2C)cc1 | SYK
17 | CCOC(=O)c1ccc(NC(=O)CSc2nnc(CNc3ccc(C)cc3)n2CC)cc1 | CHEK2
18 | CCn1c(COc2cccc(C)c2)nnc1SCC(=O)N1CCCCC1 | FYN
19 | CCn1c(CNc2cccc(Cl)c2)nnc1SCC(=O)NCc1ccco1 | PAK2
20 | CCc1nnc(NC(=O)CSc2nnc(-c3ccc(O)cc3)n2C)s1 | GSK3-β; also recorded: GSK3-α
21 | COCCn1c(SCC(=O)OC(C)C)nnc1-c1cc2ccccc2cc1O | FYN

Same assay, conditions: test compound 10 μM; active = activity greater than three-sigma from the mean of the predominately inactive population for that enzyme

Row | SMILES | protein kinase against which the compound exhibits inhibitory activity (Table 3)
22 | FC(F)(F)c1cccc(-c2nnc(SCC3CCCO3)[nH]2)c1 (stereo not shown) | AURORA-A
23 | CCCN(CCC)C(=O)CSc1nnc(-c2ccccc2O)n1-c1ccccc1OC | KIT and AURORA-A and PKA
24 | COc1ccccc1-c1nnc(SCCC(=O)O)n1-c1cccc(Cl)c1 | CHEK2
25 | COc1ccc(-c2nnc(SCC(=O)NNC(=O)c3ccc(Br)cc3)n2C)cc1 | CHEK2; also recorded: GSK3-β; also recorded: GSK3-α
26 | FC(F)(F)c1cccc(-c2nnc(SCc3cccc(I)c3)[nH]2)c1 [3-(3-iodobenzylthio)-5-(3-(trifluoromethyl)phenyl)-4H-1,2,4-triazole] | CHEK2
27 | COCCCn1c(C)nnc1SCc1ccc(C(C)(C)C)cc1 [3-(4-tert-butylbenzylthio)-4-(3-methoxypropyl)-5-methyl-4H-1,2,4-triazole] | MAPKALPK-2 and AKT1
28 | c1ccc2[nH]c(CSc3nnc(C4CCCC4)[nH]3)nc2c1 [2-((5-cyclopentyl-4H-1,2,4-triazol-3-ylthio)methyl)-1H-benzo[d]imidazole] | GSK3-α; also recorded: AURORA-A; also recorded: DYRK2
29 | Cn1c(SCc2c(F)cccc2Cl)nnc1-c1ccncc1 [4-(5-(2-chloro-6-fluorobenzylthio)-4-methyl-4H-1,2,4-triazol-3-yl)pyridine] | GSK3-β; also recorded: AURORA-A
30 | COc1ccccc1-c1nnc(SCCSc2nnc(-c3ccccc3OC)n2-c2ccc(C)cc2)n1-c1ccc(C)cc1 [1,2-bis(5-(2-methoxyphenyl)-4-p-tolyl-4H-1,2,4-triazol-3-ylthio)ethane] | CDK1
31 | N#Cc1cccc(CSc2nnc(-c3cccs3)[nH]2)c1 | AURORA-A; also recorded: GSK3-β; also recorded: GSK3-α
32 | OCC(O)CSc1nnc(-c2cccc(C(F)(F)F)c2)[nH]1 (stereo not shown) [3-(5-(3-(trifluoromethyl)phenyl)-4H-1,2,4-triazol-3-ylthio)propane-1,2-diol] | AURORA-A; also recorded: FLT-3; also recorded: CHEK2
33 | COc1ccc(-n2c(SCC(=O)NNC(C)=O)nnc2-c2ccncc2)cc1 | FYN
34 | Cc1nnc(SCc2ccccc2C#N)[nH]1 [2-((5-methyl-4H-1,2,4-triazol-3-ylthio)methyl)benzonitrile] | AURORA-A; also recorded: GSK3-β; also recorded: GSK3-α
35 | Clc1ccc(Cn2c(CCC3CCCC3)nnc2SCc2ccccc2)cc1Cl | GSK3-β; also recorded: AURORA-A; also recorded: c-TAK1
36 | COc1ccccc1-n1c(SCc2cccc(C(=O)O)c2)nnc1-c1cccc(Cl)c1 | ROCK2
37 | OC(CSc1nnc(-c2cccc(C(F)(F)F)c2)[nH]1)C(F)(F)F (stereo not shown) | AURORA-A; also recorded: FLT-3; also recorded: GSK3-β
38 | CCOc1ccc(NCc2nnc(SCCN3CCOCC3)n2-c2ccc(OC)cc2)cc1 | FYN
39 | Cn1c(SCC(=O)NNC(=O)c2ccccc2O)nnc1-c1ccccc1 | FYN and FLT-3 and CSK
40 | Cc1nnc(SCCc2ccccc2)[nH]1 [3-methyl-5-(phenethylthio)-4H-1,2,4-triazole] | AURORA-A; also recorded: GSK3-β
41 | Clc1ccc(Cn2c(Cc3ccccc3)nnc2SCc2ccccc2)cc1Cl [3-benzyl-5-(benzylthio)-4-(3,4-dichlorobenzyl)-4H-1,2,4-triazole] | AURORA-A
42 | O=C(NCCSc1nnc(-c2cccc(C(F)(F)F)c2)[nH]1)c1ccccc1 | GSK3-β; also recorded: GSK3-α; also recorded: CHEK2
43 | OCCSc1nnc(-c2ccc(Cl)c(Cl)c2)[nH]1 [2-(5-(3,4-dichlorophenyl)-4H-1,2,4-triazol-3-ylthio)ethanol] | AURORA-A; also recorded: FLT-3; also recorded: CHEK2
